The term viscosity denotes the resistance of a fluid to flow.

Experimental findings from patent US20250018066A1, “Ophthalmic dye composition” (Vitreq B.V., priority 2016, published 2025) are described below.

One data set relates to retina. Description: Staining of porcine retina with dye preparations, contrast quantified from photographs. The settings on record: in words; compared with prior art agents like PEG. From the text:
The eyes were kept on ice until used.
The upper part of the eye, including the cornea, iris, and lens, was removed with an orbital section. The vitreous body was removed to get access to the retina. The retina was rinsed three times with phosphate-buffered saline (PBS). Dye solutions were applied to the retina for 30 seconds, and the retina was then washed three times with PBS.
As an example of the visual impression of the stained retina, photos were taken. For photographic recording of the result of the staining, the staining was limited by applying a glass tube of a diameter of 10 mm. Care was taken that no dye could reach the cellular layer of the retina. […]
As an example of quantification, the pictures in FIGS. 1A-J were quantified by measuring the optical densities (expressed as grey values on a scale from 0 (black) to 255 (white)) of a rectangular area within the stained portion of the retina and a rectangular area outside the stained portion as background (ensuring that no blood vessels where present in the rectangular areas), and calculating the ratio of the grey values of the background to that of the stain. […] Toxicity was measured in ARPE cells. […] Toxicity is expressed as percent reduction of cell viability in comparison to a control incubated with PBS instead of the dye solution.

The nature of the next data set: Density of dye solutions. In kind it is physicochemical. The method, then:
(§1) Density and viscosity can be changed by the addition of diglycerol or a gadolinium complex or a combination of both. For sinking of the dye solution to the bottom of the eye, density is more important than viscosity; the latter reduces, however, possible mixing for solutions which sink slowly. The density of dye solutions can be increased from 1.003 grams per milliliter (at 25° C.) to 1.028, when 10 volume % of a 0.5 M solution of gadopentetate is added to a final concentration of gadopentetate of 0.05 M, and to 1.048 when 20 volume % of a 0.5 M solution of gadopentetate is added to a final concentration of 0.10 M. The resulting viscosities are 1.125 mPa·s and 1.258 mPa·s, respectively. For a 5% addition of named gadopentetate solution, a density of 1.016 gram per milliliter and a viscosity of 1.117 mPa·s is obtained.

The nature of data set [1]: Viscosity of dye solutions. In kind it is physicochemical. The method, then:
as §1

Data set [2] in a line: Osmotic pressure contribution of density-increasing agent. The settings on record: in words. In kind it is physicochemical.
The mark [3] stands for this setting: 10 volume % of 0.5 M solution added, final concentration 0.05 M.
Where [4] appears, read: 20 volume % of 0.5 M solution added, final concentration 0.10 M.

Regarding `OCC(O)COCC(O)CO` (stereo not drawn) [diglycerol], in the data set with retina, the “effect of density agent on staining efficiency” value was “does not decrease staining efficiency”. In addition, in the data set “Density of dye solutions” (addition of 5 weight percent), the density turned out to be 1.020 grams per milliliter. The viscosity in data set [1] (addition of 5 weight percent) worked out at 1.191 mPa·s. Moreover, the “osmotic pressure / osmotic activity” value is “without increasing osmotic pressure substantially” in data set [2] and “not even osmotically active” in data set [2] (listed as DG).
On to `O=C([O-])CN(CCN(CC(=O)[O-])CC(=O)O)CCN(CC(=O)[O-])CC(=O)O.[Gd+3]` [gadopentetate], for which the density in “Density of dye solutions” (5% addition of 0.5 M solution) is 1.016 gram per milliliter; in “Density of dye solutions” (setting [3]), 1.028 grams per milliliter; in “Density of dye solutions” (setting [4]), 1.048 grams per milliliter. The viscosity was 1.117 mPa·s in data set [1] (5% addition of 0.5 M solution), 1.125 mPa·s in data set [1] (setting [3]) and 1.258 mPa·s in data set [1] (setting [4]).
Turning to `OCC(O)COCC(O)COCC(O)CO` (stereo not drawn) [triglycerol], in data set [2], the “osmotic pressure / osmotic activity” value is “without increasing osmotic pressure substantially”.
